Measured values published in patent US20160200769A1, “Compound, Transitmycin, Effective Against Bacterial and Viral Pathogens” (INDIAN COUNCIL OF MEDICAL RESEARCH, priority 2013, published 2016).
*1 amine or outer side, *2 acyl side, *3 side chain or, on linkers, in order; H or OH if unused. Where a SMILES comes first, the peptide text is derived from it. Bridges are numbered along the chain shown (N, C = ends). Roman numbers before positions name the chains, in order. [ ]: non-standard residue; d: D form. Actinocin(1to9) = Cc1c2oc3c(C)ccc(C(=O)[*:2])c3nc-2c(C(=O)[*:1])c(N)c1=O; Pro(4-oxo) = O=C1CN[C@H](C(=O)O)C1; NMeV = CN[C@H](C(=O)O)C(C)C; Sar = CNCC(=O)O

Tests used:
[1] = system: dormant tubercle bacilli grown under hypoxic condition; test: Activity against latent TB bacilli, Wayne's dormant model; type: cell-based, M. tuberculosis
M. tuberculosis H37Rv = test: microbe, parasite or virus in culture; type: cell-based; conditions: Mycobacterium tuberculosis
[2] = system: biofilm of M. tuberculosis isolates (SHRE sensitive, MDR and XDR); test: Inhibitory activity against MTB biofilm; type: cell-based
[3] = system: Staphylococcus aureus (NCIM5021); test: MIC by micro dilution broth assay with resazurin; type: cell-based; conditions: 18 hours at 37° C.
Method: (§1) The minimum inhibitory concentration (MIC) of the compound of formula (I) is determined for other bacterial pathogens Staphylococcus aureus (NCIM5021), Pseudomonas aeruginosa (NClM5029) and Escherichia coli (NCIM2931). The minimum inhibitory concentration (MIC) is determined by micro dilution broth assay method with modifications using resazurin as an indicator as follows:
(§2) (i) dissolving the compound of formula (I) in absolute ethanol to a concentration of 10 mg/ml;
(§3) (ii) Serially diluting the compound and adding to successive wells in a 96 well microtiter plate and incubating with the bacterial pathogens for 18 hours at 37° C.;
(§4) (iii) maintaining the growth and sterility controls during the experiment;
(§5) (iv) adding 10 μl of 0.01% resazurin solution and incubating for 2 hours;
(§6) (v) visually assessing the color change.
(§7) Blue colour indicates inhibition of growth, indicating MIC.

[4] = system: Pseudomonas aeruginosa (NCIM5029); test: MIC by micro dilution broth assay with resazurin; type: cell-based; conditions: 18 hours at 37° C.
Method: as §1, §2, §3, §4, §5, §6, §7

[5] = system: Escherichia coli (NCIM2931); test: MIC by micro dilution broth assay with resazurin; type: cell-based; conditions: 18 hours at 37° C.
Method: as §1, §2, §3, §4, §5, §6, §7

Indie-Cl (Clade C virus) = test: Anti-HIV activity of purified compound, p24 antigen in infected PBMC; type: cell-based, HIV-1; conditions: day 7, 0 μg/ml control 406
Method: (§8) Virus production by transfection of 293T cells: 293T cells are plated at a concentration of 1×10^6 cells/ml in a 100 mm culture dish and grown at 37° C. in a CO2 incubator for 24 hours. Cells are transfected with 20 μg of HIV IIIB plasmid DNA using the mammalian cell transfection kit (Millipore). The culture supernatant is collected at 48 hours post transfection, clarified by centrifugation and stored in liquid nitrogen.
(§9) Titration of virus stock: Seven serial four-fold dilutions of virus stock, ranging from 1:[…] are titrated in triplicate in a 96-well flat bottomed tissue culture plate containing 200,000 cells/well (PBMC stimulated with PHA for 72 hours). After 7 days of culture at 37° C. in a CO2 incubator, the titration assay is terminated and the culture supernatants are tested for HIV-1 p24 antigen. The TCID50 (tissue culture infection dose50) is calculated employing the Spearman-Kaber method.
(§10) Testing for anti-HIV activity of compound: HIV IIIB is used as a representative Glade B virus and Indie-Cl as a representative Glade C virus. Healthy donor PBMC (Peripheral blood mononuclear cells) activated through PHA (Phyto heme agglutinin) stimulation for 72 hours are incubated with 100TCID50 of the virus per 1×10^6 cells for 2 hours at 37° C. The cells are washed twice to get rid of the unadsorbed virus and plated at a concentration of 200,000 cells/well in a 96-well tissue culture plate. Varying concentrations of the compound are added to triplicate wells (concentrations tested were 0.001 μg/ml, 001 μg/ml, 0.1 μg/ml, 1.0 μg/ml, 5.0 μg/ml and 10.0 tg/ml). Control cultures are set up without addition of the compound. Cultures are maintained for 7 days at 37° C. in a CO2 incubator. On day 7, culture supernatants are tested for HIV-1 p24 antigen.
(§11) Measurement of HIV-1 p24 antigen: HIV-1 p24 antigen production is measured as an indirect measure of viral replication in the culture supernatants using the Alliance HIV-1 p24 ELISA kit (Perkin Elmer, USA).
(§12) Virus growth is .determined, by measuring p24 concentrations in culture supernatants.

HIV IIIB (Clade B virus) = test: as above; type: cell-based, HIV-1; conditions: day 7, 0 μg/ml control 2394
Method: as §8, §9, §10, §11, §12

[6] = Solubility of purified compound in solvents; type: physicochemical
Method: Solubility of purified compound is tested by adding the purified compound in 100 jxl of solvents such as methanol, chloroform, dichloromethane, diethyl ether, ethyl acetate and n-hexane. Melting point of the purified compound is tested using Tempo instrument and is determined as 240-242° C.

M. tuberculosis (XDR) = test: microbe, parasite or virus in culture; type: cell-based; conditions: Mycobacterium tuberculosis
3T3 cells = test: Cytotoxicity, MTT assay; type: cell-based; design: unit of the concentration uncertain; conditions: for Average % Viability: 3T3 cells, MTT
Method: Cytotoxicity of the compound is measured by adopting MTT assay (Mosmann, 1983) as follows:
(i) preparing, the sample by inoculating 3T3 cells in 5×10^4 concentrations in each well of 96 well microtiter plates with in Dulbecco's modified Eagles medium (DMEM) containing 10% FBS, 100 U/ml Penicillin 100 µg/ml Streptomycin;
(ii) incubating for a period of 2 days at a temperature of 37° C. in 5% CO2 atmosphere (Astec Japan); […]
(iv) Discarding the growth medium in the plates and washing the wells with phosphate buffer saline (PBS);
(v) Adding MTT in growth medium at a final concentration of 0.5 mg/ml and incubating for 4 hours;
(vi) solublizing the insoluble formazan crystals' with 0.04N HCl in isopropylalcohol and measuring the absorption on a Spectramax Plus384 spectrophotometer (Molecular Devices, Calif., USA) at 570 nm.
For each of the samples evaluated, the test is performed in triplicate. The control cells are treated with PBS. Overnight experiment is done with DMSO alone as a control.

[7] = system: M. tuberculosis SHRE sensitive; test: microbe, parasite or virus in culture; type: cell-based; conditions: Mycobacterium tuberculosis

With NNC(=O)c1ccncc1 [INH, reference compound] the “Effect of standard drug against latent tubercle bacilli” value ([1]; negative control) was “resistant”.
In the case of Cc1c2oc3c(C)ccc(C(=O)N[C@@H]4C(=O)N[C@@H](C(C)C)C(=O)N5CCC[C@H]5C(=O)N(C)CC(=O)N(C)[C@@H](C(C)C)C(=O)O[C@@H]4C)c3nc-2c(C(=O)N[C@@H]2C(=O)N[C@@H](C(C)C)C(=O)N3CC(=O)C[C@H]3C(=O)N(C)CC(=O)N(C)[C@@H](C(C)C)C(=O)O[C@@H]2C)c(N)c1=O [compound of formula (I), Transitmycin] (I: TV[Pro(4-oxo)][Sar][NMeV] / II: TVP[Sar][NMeV]; ester I:1-I:C, II:1-II:C; linker I:N-II:N via Actinocin(1to9)), the MIC (M. tuberculosis H37Rv) is reported as under 1 µg/mL, the Biofilm formation ([2]; 100 μg/ml, 37° C., 5 weeks) is reported as “no, biofilm formation” and the “Viable colonies (CFU) after treatment of wells” value ([2]; at the end of 2 months, […]) is reported as “no viable colonies”. For the same compound, the MIC [3] was 139 µg/mL, the MIC [4] was 17.4 µg/mL and the MIC [5] was 17.4 µg/mL. It also gave a P24 antigen (Indie-Cl (Clade C virus); compound 0.001 μg/ml) of 390 pg/mL, a P24 antigen (Indie-Cl (Clade C virus); compound 0.01 μg/ml) of 310 pg/mL and a P24 antigen (Indie-Cl (Clade C virus); compound 0.1 μg/ml) of 344 pg/mL. It also gave a P24 antigen (Indie-Cl (Clade C virus); compound 1 μg/ml) of 302 pg/mL, a P24 antigen (Indie-Cl (Clade C virus); compound 5 μg/ml) of 295 pg/mL and a P24 antigen (Indie-Cl (Clade C virus); compound 10 μg/ml) of 296 pg/mL. It also gave a P24 antigen (HIV IIIB (Clade B virus); compound 0.001 μg/ml) of 1603 pg/mL, a P24 antigen (HIV IIIB (Clade B virus); compound 0.01 μg/ml) of 337 pg/mL and a P24 antigen (HIV IIIB (Clade B virus); compound 0.1 μg/ml) of 163 pg/mL. For the same compound, the P24 antigen (HIV IIIB (Clade B virus); compound 1 μg/ml) was 144 pg/mL, the P24 antigen (HIV IIIB (Clade B virus); compound 5 μg/ml) was 147 pg/mL and the P24 antigen (HIV IIIB (Clade B virus); compound 10 μg/ml) was 163 pg/mL. The Solubility ([6]; Chloroform, Dichloromethane, Ethyl acetate, Methanol, Ethanol, Acetonitrile, DMSO, water) was “Souble”, the Solubility ([6]; Hexane) was “Insoluble” and the MIC (M. tuberculosis (XDR)) was 6.25 µg/mL. The “CFU in M. tuberculosis cultures compared with CFU without the compound” value [1] was “Reduction in the CFU”, the “Average % Viability” value (3T3 cells; 10 (unit uncertain)) was 93.00% and the “Average % Viability” value (3T3 cells; 25 (unit uncertain)) was 86.01%. For the same compound, the “Average % Viability” value (3T3 cells; 50 (unit uncertain)) was 73.88%, the “Average % Viability” value (3T3 cells; 100 (unit uncertain)) was 66.13% and the Cytotoxic activity (3T3 cells; even at 100 (unit uncertain) concentration) was “very poor cytotoxic activity”. It also gave an MIC [7] of 1.5 µg/mL.
